One experiment has as its target T1, SET7/9 (Homo sapiens, UniProt Q8WTS6).
T1 construct: purchased Cayman 10320
T1 sequence (Q8WTS6 1-366): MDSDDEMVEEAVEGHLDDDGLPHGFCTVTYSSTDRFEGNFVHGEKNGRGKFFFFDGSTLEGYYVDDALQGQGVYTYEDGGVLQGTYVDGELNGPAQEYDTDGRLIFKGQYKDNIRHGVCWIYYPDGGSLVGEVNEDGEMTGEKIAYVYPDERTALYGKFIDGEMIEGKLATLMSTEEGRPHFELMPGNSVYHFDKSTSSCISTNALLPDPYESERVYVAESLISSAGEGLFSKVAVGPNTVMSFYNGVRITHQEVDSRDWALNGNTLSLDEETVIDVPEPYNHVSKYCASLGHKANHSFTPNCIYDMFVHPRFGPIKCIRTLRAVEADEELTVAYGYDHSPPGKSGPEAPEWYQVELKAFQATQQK
Kind of experiment: Fluorescence polarization saturation binding of fluorescent probe to SET7/9. On the procedure: (§1) Methods: The experiment was performed once, with two replicate wells for all methyltransferases per condition. The sole exception to this is NSD2 (see details below). The assay was performed in a ½ area, black, 96-well plate (Corning #3686) in a final volume of 30 μL. Methyltransferases (Table 1) were serially diluted two-fold in FP buffer (Cayman Catalog #600028) and 15 μL of a given dilution were added per well to the assay plate. Fifteen microliters of sinefungin probe 1A (10 nM) were added to each well, giving a final sinefungin probe 1A concentration of 5 nM. This concentration of sinefungin probe 1A was chosen because it had at least a 10-fold increase in fluorescence (excitation max 575 nm/emission max 615 nm) over background (buffer). The mixture was incubated in the dark at room temperature for 30 minutes and its fluorescence polarization was read using a BioTek Synergy 4.
For orientation: In fluorescence polarisation assays a small probe gives low polarisation when free and higher when bound to something large.

Another experiment has as its target T2, G9a (Homo sapiens, UniProt Q96KQ7).
T2 construct: purchased Cayman 49010353
T2 sequence (Q96KQ7 1-1210): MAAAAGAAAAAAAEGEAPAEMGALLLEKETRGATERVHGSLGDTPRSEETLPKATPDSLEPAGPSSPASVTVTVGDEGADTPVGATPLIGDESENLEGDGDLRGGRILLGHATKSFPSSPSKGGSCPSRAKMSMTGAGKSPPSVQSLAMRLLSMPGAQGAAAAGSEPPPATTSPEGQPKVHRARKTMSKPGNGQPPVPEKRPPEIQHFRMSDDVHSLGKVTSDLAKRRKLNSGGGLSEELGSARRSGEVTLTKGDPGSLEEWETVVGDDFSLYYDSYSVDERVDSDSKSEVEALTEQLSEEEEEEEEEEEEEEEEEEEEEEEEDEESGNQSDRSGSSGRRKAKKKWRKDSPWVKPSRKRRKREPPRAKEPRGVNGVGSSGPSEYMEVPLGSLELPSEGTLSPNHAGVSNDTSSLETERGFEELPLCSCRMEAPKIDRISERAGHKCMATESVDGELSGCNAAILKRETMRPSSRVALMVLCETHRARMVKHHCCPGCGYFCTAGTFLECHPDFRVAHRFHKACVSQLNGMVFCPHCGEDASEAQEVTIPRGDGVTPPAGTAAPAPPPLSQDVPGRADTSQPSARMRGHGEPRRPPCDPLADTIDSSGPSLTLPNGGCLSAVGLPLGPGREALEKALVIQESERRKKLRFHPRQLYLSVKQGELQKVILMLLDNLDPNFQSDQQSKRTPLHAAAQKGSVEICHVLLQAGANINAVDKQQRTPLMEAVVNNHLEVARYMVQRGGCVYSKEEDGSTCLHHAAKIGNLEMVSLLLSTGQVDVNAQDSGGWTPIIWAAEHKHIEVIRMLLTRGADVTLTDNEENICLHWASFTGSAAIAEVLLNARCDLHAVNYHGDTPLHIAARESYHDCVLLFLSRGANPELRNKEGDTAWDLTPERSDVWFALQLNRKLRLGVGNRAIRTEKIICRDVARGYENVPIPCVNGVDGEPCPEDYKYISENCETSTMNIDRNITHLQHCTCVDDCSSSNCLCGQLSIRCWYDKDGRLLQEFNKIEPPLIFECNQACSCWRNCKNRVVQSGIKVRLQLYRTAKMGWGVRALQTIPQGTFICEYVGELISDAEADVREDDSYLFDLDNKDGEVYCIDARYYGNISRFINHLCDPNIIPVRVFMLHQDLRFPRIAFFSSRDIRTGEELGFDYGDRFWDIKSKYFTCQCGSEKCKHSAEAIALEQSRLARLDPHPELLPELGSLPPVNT
The experiment can be described thus: Fluorescence polarization saturation binding of fluorescent probe to G9a. On the procedure: as §1

In a further experiment the target is T3, PRMT1 (Homo sapiens, UniProt Q99873).
T3 construct: purchased Cayman
T3 sequence (Q99873 whole entry): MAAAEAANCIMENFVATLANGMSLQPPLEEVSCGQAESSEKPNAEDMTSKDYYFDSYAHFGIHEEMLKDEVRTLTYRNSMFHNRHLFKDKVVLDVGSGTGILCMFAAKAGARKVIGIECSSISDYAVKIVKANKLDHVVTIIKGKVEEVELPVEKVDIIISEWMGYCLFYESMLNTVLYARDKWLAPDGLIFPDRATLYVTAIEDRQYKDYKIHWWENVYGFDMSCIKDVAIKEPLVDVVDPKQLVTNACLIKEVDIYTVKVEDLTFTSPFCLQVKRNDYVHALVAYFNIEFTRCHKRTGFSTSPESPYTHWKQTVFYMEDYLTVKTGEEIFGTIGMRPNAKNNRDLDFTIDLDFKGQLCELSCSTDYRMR
The experiment can be described thus: Fluorescence polarization saturation binding of fluorescent probe to PRMT1. The protocol: as §1

A further experiment concerns the target T4, PRMT4 (Homo sapiens, UniProt Q86X55).
T4 construct: made in house
T4 sequence (Q86X55 1-608): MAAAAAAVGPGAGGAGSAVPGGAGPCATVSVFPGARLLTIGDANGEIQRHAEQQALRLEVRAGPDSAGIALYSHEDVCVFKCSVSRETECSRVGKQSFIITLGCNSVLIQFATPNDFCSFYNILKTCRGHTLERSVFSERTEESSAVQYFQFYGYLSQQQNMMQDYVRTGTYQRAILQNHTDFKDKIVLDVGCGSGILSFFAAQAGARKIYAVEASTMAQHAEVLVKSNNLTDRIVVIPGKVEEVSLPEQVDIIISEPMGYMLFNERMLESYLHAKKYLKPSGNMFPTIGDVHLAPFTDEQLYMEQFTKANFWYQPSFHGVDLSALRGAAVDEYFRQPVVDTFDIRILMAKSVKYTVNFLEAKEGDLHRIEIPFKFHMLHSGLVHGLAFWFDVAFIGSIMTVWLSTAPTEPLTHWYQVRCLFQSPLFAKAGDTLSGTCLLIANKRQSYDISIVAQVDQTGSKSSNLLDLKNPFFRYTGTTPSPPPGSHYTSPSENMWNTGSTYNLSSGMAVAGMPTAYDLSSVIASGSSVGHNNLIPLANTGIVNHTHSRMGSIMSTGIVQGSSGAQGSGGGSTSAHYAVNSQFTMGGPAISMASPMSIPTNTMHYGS
Kind of experiment: Fluorescence polarization saturation binding of fluorescent probe to PRMT4. The settings on record: saturation-binding format, read-out: Sinefungin Probe 1A Affinity. The protocol: (§2) Sinefungin Probe 1A was tested for the ability to bind to 16 proteins, including several non-methlytransferase protein controls (Table 2). This probe binds to 4 methyltransferases (SET7/9, G9a, GLP, MLL) with Kd values <2 μM.

The target of the next experiment is Trypsin. Kind of experiment: Fluorescence polarization saturation binding of fluorescent probe to Trypsin (control protein). The following applies: saturation-binding format, read-out: Sinefungin Probe 1A Affinity. The protocol: as §2

Several values for one entry are separate records, joined by “and”; a condition that tells them apart may be missing. Equal values may be shown once. Read-outs that look alike come from different tables or passages of the source.

Results on one compound are retold here after US9120820B2, “Fluorescent molecular probes for use in assays that measure test compound competitive binding with SAM-utilizing proteins” (CAYMAN CHEMICAL COMPANY, INCORPORATED, priority 2011, dated 2015).

As for `Nc1ncnc2c1ncn2[C@@H]1O[C@H](C[C@@H](N)CC[C@H](N)C(=O)O)[C@@H](OCc2cnnn2CCCCCCNC(=O)OC2CCN(C(=O)c3ccccc3C3=c4cc5c6c(c4Oc4c3cc3c7c4CCCN7CCC3)CCC[N+]=6CCC5)CC2)[C@H]1O` [Sinefungin Probe 1A], the Kd at SET7/9 (Example 8, SET7/9, 5 nM probe, experiment performed once, FIG. 2, read-out: Kd) is 17 nM; at SET7/9 (SET7/9, saturation-binding format, mean ± SEM, at least two independent experiments, read-out: Sinefungin Probe 1A Affinity), < 2000 nM and 27 nM; at G9a (Example 8, G9a, 5 nM probe, experiment performed once, FIG. 2, read-out: Kd), about 700 nM; on G9a (G9a, saturation-binding format, mean ± SEM, read-out: Sinefungin Probe 1A Affinity), 1800 ± 1000 nM; on PRMT1 (PRMT1, saturation-binding format, read-out: Sinefungin Probe 1A Affinity), over 1200 nM; at PRMT4 it was over 2000 nM. At Trypsin, the Kd was over 10000 nM. Further, at PRMT1 (Example 8, PRMT1, 5 nM probe, FIG. 2), the “measurable affinity for the probe” value was “only SET7/9 and G9a displayed measurable affinity”.
